The record followed here is ChEMBL document CHEMBL5465560, “Selectivity Literature for EUbOPEN Chemogenomic Library” (2024).

Structures are written as SMILES.

For test [1], the target named is Tyrosine-protein kinase Fes/Fps (Homo sapiens) (UniProt P07332). The test is described as follows: Selectivity interaction (ProQinase) EUB0000171b FES.
Test [2] deals with Wee1-like protein kinase 2 (Homo sapiens) (UniProt P0C1S8). The settings on record: at 10 µM.
Test [3] deals with T1, Tyrosine-protein kinase Mer (Homo sapiens) (UniProt Q12866).
T1 sequence (whole entry): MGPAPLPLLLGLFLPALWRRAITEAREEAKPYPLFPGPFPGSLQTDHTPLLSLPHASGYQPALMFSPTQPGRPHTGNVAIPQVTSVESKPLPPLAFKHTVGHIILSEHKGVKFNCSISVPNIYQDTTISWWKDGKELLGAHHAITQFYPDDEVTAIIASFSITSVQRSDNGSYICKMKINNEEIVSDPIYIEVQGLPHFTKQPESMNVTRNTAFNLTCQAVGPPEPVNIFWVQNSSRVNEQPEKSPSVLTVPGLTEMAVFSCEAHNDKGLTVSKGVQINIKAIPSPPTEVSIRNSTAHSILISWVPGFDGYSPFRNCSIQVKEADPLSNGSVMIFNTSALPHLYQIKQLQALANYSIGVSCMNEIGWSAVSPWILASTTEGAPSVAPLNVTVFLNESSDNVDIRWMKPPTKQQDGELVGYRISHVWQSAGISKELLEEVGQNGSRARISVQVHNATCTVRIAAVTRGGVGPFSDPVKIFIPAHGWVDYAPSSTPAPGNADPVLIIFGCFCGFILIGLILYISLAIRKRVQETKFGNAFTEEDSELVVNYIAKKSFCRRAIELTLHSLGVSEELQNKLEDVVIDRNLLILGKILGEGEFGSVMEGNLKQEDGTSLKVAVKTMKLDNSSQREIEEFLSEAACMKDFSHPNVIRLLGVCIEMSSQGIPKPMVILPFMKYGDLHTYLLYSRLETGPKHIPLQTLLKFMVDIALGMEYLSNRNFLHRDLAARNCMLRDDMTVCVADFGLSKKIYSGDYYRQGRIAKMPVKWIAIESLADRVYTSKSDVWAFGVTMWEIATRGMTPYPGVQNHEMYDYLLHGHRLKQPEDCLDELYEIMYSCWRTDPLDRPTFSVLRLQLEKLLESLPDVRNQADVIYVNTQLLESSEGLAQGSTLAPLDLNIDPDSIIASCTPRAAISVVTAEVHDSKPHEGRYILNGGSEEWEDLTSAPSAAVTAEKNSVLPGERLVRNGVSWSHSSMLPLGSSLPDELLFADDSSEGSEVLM
As to the kind of experiment: Selectivity interaction (Kinase panel (DSF assay)) EUB0001558a MERTK. In general terms: In DSF a fluorescence change marks the thermal transition of the protein.

The target in test [4] is Cyclin-dependent kinase 7 (Homo sapiens, UniProt P50613). As to conditions: at 10 µM.
Cyclin-dependent kinase 7, sequence (P50613 whole entry): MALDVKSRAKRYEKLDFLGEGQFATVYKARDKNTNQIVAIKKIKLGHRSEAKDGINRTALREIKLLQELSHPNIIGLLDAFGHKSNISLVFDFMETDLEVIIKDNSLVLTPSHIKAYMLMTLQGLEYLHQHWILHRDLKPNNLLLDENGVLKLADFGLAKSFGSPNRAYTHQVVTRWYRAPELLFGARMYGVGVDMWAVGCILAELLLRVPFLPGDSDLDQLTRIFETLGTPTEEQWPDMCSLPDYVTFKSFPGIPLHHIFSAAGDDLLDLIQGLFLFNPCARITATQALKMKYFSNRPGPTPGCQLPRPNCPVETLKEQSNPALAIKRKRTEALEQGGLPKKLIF
Test [5] deals with Casein kinase II subunit alpha (Homo sapiens, UniProt P68400). As to conditions: at 10 µM.
Casein kinase II subunit alpha, sequence (P68400 whole entry, looked up): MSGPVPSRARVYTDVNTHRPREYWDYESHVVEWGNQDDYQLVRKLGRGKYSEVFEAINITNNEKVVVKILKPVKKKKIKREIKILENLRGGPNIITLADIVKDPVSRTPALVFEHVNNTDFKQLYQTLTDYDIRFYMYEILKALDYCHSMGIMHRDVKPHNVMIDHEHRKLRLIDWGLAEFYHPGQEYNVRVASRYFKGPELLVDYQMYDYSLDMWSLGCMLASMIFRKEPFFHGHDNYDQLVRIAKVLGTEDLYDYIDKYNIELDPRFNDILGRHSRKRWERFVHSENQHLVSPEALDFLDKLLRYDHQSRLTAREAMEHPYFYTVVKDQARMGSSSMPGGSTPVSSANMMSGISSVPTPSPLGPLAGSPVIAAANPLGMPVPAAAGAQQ
Test [6] has as its target Homeodomain-interacting protein kinase 1 (Homo sapiens, UniProt Q86Z02). As to the kind of experiment: Selectivity interaction (KinomeScan (DiscoverX)) EUB0001079a HIPK1. The settings on record: at 1 µM.
Test [7] has as its target Serine/threonine-protein kinase 32B (Homo sapiens) (UniProt Q9NY57). As to the kind of experiment: Selectivity interaction (KinomeScan (DiscoverX)) EUB0000045b STK32B.
For test [8], the target named is Mitogen-activated protein kinase 8 (Homo sapiens, UniProt P45983). As to the kind of experiment: Selectivity interaction (LanthaScreen Eu Kinase Binding Assay) EUB0001632a MAPK8. The settings on record: at 10 µM. On the technique in general: Time-resolved FRET reads energy transfer from a long-lived donor to a nearby acceptor.
Mitogen-activated protein kinase 8, sequence (P45983 whole entry): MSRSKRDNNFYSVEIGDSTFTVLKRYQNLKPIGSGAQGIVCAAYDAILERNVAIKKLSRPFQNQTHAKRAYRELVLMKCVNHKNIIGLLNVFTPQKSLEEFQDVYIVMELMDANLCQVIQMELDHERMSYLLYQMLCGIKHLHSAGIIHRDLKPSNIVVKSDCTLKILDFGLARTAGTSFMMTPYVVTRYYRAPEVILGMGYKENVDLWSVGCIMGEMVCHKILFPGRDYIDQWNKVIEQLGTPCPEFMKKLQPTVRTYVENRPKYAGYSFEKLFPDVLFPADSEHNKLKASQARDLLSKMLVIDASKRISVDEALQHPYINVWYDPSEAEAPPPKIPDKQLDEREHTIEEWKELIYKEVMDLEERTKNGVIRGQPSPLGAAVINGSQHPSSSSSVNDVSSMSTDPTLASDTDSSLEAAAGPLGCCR
For test [9], the target named is Histone-lysine N-methyltransferase, H3 lysine-36 specific (Homo sapiens) (UniProt Q96L73). As to the kind of experiment: Selectivity interaction (Methyltransferase screen (radiometric assays, panel of 8 PRMTs, 21 protein lysine methyltransferases, 3 DNA methyltransferases, and one RNA methyltransferase)) EUB0000272b NSD1. The settings on record: at 10 µM.
Test [10] has as its target CDK7/Cyclin H/MNAT1 (Homo sapiens) (UniProt P51946+P50613+P51948). As to the kind of experiment: Selectivity interaction (Kinase panel (Invitrogen)) EUB0000639a CDK7. The settings on record: at 200 nM. The format is protein-complex assay.
For test [11], the target named is T2, Dual specificity mitogen-activated protein kinase kinase 6 (Homo sapiens) (UniProt P52564).
T2 sequence (whole entry): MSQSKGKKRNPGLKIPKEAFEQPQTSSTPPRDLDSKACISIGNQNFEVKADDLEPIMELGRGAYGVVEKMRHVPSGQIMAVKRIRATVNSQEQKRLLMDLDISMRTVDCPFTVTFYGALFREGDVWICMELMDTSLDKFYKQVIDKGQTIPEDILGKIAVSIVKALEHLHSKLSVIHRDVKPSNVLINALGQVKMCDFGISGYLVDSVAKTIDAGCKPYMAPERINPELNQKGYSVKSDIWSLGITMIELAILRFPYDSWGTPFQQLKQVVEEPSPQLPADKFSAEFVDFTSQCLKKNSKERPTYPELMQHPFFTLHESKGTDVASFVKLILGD
The test is described as follows: Selectivity interaction (KinomeScan (DiscoverX)) EUB0000595a MAP2K6. As to conditions: at 10 µM.

Test [12] addresses T3, Aurora kinase C (Homo sapiens) (UniProt Q9UQB9).
T3 sequence (whole entry): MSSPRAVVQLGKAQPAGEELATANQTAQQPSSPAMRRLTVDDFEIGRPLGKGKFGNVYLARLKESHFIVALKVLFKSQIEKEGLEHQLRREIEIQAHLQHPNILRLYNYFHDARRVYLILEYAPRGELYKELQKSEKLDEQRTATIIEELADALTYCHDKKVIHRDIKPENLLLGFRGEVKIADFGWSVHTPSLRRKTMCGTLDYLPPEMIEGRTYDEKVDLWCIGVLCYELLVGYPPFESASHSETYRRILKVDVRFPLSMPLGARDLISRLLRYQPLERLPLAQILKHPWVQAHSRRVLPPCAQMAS
The test is described as follows: Selectivity interaction (KinomeScan (DiscoverX)) EUB0001619a AURKC. The settings on record: at 1 µM.

In test [13] the target is T4, Phosphatidylinositol 5-phosphate 4-kinase type-2 gamma (Homo sapiens) (UniProt Q8TBX8).
T4 sequence (whole entry): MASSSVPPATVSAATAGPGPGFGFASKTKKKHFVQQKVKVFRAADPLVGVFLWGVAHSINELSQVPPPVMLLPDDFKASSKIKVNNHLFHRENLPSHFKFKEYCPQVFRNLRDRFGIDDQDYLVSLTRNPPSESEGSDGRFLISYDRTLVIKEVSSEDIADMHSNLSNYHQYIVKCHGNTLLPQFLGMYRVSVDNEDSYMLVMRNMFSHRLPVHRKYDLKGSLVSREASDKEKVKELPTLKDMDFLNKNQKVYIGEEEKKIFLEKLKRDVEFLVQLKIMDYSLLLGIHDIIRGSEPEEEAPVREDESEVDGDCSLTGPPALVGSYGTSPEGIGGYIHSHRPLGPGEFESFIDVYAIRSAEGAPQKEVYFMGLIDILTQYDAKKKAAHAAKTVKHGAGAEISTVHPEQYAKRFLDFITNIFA
As to the kind of experiment: Selectivity interaction (ActivX KiNativ screen (ex vivo kinase selectivity in human PBMCs)) EUB0001619a PIP4K2C. It counts as cell-based. The settings on record: PBMC, at 1 µM.

Tyrosine-protein kinase Fes/Fps (Homo sapiens), sequence (P07332 whole entry): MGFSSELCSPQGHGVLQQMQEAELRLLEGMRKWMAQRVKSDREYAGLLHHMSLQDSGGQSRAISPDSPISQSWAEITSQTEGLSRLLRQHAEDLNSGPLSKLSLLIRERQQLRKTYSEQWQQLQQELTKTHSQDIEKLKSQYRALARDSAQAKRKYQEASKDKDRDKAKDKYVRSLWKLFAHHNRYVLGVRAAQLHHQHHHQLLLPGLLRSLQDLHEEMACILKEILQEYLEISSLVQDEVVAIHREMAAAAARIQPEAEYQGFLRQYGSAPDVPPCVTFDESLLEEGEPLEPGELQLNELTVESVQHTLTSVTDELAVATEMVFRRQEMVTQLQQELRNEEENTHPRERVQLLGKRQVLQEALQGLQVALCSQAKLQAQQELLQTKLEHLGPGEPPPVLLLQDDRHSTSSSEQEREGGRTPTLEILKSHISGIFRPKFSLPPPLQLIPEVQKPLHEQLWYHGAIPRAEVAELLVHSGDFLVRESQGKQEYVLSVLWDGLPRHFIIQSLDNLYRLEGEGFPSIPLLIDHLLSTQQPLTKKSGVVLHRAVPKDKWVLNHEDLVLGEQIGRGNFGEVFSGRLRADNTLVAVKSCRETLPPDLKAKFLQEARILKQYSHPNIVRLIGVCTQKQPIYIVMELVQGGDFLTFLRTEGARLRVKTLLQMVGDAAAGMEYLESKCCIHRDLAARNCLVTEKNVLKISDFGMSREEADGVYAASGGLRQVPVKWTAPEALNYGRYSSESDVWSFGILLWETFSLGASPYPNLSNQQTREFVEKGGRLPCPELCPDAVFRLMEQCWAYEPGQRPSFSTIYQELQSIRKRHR
Serine/threonine-protein kinase 32B (Homo sapiens), sequence (Q9NY57 whole entry): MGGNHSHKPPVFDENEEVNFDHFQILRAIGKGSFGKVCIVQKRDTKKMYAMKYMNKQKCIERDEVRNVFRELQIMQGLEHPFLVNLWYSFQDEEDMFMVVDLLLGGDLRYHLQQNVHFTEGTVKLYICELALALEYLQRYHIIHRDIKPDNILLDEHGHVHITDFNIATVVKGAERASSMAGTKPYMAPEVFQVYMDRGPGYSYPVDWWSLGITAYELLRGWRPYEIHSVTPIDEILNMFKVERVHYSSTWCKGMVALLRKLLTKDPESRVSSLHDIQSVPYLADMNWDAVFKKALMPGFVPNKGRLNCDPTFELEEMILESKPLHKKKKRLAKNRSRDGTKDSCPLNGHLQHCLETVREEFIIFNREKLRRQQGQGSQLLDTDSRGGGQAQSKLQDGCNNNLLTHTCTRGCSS
Wee1-like protein kinase 2 (Homo sapiens), sequence (P0C1S8 whole entry, looked up): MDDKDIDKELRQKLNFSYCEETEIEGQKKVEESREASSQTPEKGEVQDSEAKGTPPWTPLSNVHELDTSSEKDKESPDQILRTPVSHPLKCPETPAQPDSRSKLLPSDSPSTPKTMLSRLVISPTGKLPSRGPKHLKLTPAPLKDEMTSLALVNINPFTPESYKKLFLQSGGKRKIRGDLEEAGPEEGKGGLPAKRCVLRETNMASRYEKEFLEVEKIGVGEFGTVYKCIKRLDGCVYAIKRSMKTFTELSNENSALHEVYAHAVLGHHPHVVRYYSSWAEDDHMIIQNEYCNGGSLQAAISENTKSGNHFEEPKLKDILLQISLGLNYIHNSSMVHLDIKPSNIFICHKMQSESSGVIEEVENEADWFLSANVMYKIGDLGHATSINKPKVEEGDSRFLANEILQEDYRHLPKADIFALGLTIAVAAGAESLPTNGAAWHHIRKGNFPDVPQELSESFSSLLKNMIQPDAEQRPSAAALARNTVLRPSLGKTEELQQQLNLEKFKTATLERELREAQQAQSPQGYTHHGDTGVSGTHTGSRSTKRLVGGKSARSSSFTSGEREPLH
Homeodomain-interacting protein kinase 1, sequence (Q86Z02 whole entry, looked up): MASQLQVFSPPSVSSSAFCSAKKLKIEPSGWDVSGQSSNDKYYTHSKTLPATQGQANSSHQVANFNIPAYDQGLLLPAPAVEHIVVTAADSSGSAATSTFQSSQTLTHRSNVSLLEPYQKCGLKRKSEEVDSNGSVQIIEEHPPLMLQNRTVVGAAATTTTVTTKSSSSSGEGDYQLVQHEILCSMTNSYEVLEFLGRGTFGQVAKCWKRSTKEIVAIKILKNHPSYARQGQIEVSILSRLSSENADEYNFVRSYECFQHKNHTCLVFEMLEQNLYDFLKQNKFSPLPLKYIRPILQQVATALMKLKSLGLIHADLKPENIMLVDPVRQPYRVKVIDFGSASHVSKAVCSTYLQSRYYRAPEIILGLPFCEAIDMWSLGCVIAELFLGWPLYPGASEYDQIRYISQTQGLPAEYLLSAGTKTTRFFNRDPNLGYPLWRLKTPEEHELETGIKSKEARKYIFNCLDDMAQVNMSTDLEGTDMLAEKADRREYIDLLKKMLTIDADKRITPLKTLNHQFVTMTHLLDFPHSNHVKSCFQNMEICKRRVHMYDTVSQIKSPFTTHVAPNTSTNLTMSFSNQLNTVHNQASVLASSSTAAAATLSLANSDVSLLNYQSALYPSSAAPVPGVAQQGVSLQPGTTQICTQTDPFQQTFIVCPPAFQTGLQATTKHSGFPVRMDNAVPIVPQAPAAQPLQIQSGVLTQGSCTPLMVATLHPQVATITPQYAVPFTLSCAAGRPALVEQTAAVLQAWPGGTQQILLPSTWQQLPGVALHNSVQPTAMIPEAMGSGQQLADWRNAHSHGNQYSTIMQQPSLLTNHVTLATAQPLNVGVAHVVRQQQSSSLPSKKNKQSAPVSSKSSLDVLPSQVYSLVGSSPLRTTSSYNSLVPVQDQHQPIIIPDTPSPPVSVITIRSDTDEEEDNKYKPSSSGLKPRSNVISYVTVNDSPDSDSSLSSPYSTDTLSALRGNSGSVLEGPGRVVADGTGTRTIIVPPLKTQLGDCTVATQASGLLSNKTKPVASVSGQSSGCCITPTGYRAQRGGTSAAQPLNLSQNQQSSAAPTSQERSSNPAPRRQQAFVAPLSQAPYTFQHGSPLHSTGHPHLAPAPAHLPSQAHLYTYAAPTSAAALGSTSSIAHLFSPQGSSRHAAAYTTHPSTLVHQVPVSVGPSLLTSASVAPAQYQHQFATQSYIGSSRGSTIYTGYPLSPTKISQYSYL

For the compound `C=CC(=O)Nc1cccc(C(=O)Nc2ccc(Nc3cc(-c4[nH]c(SC)nc4C)ccn3)cc2)c1`, the % of control in test [1] (at 1 µM) was determined as 88%; in test [1] (at 5 µM) it was 91%.
In the case of `Cc1cc([C@@H](C)Nc2ccccc2C(=O)O)c2nc(N3CCOCC3)cc(=O)n2c1` [AZD-6482], the % of control in [2] came out at 100%.
For `CC(C)(O)[C@H](F)CN1Cc2cc(NC(=O)c3cnn4cccnc34)c(N3CCOCC3)cc2C1=O`, the dTM in [3] is 1.7 K.
As to `CCN(CC)CCCCNc1ncc2cc(-c3cc(OC)cc(OC)c3)c(NC(=O)NC(C)(C)C)nc2n1`, the % of control in test [4] and in test [5] was 100% each time.
On to `Nc1cnc(N2CCc3cc(S(=O)(=O)Nc4c(F)cc(Cl)cc4F)cc(N4CCCC4=O)c32)nc1` [TP-020n], for which the % of control in [6] is 91%.
As to `C=CC(=O)Nc1cc(-n2c(=O)ccc3cnc4ccc(-c5ccc(NS(C)(=O)=O)cc5)cc4c32)ccc1C`, the % of control in [7] (at 1 µM) and in [7] (at 10 µM) was 100% each time.
For the compound `Cn1cc(-n2cnc3c(NCc4nc5cc(Cl)c(Cl)cc5[nH]4)nc(N4CCOCC4)nc32)cn1`, the % of inhibition in test [8] is -32.2%.
Turning to `Cc1cc(C)cc([C@H]2c3cc(C)ccc3NC(=O)CN2C(=O)c2ccc(Br)s2)c1`, the % of activity in test [9] came to 104%.
As to `CC[C@@H]1[C@H](F)C(=O)N[C@@H]1COc1nccc2cc(C(N)=O)c(OC)cc12` [ZIMLOVISERTIB], the % of inhibition in [10] worked out at 2.84%.
In test [11], `COCC(=O)NC/C=C/c1ccc2ncnc(Nc3ccc(Oc4ccc(C)nc4)c(C)c3)c2c1` [CP-724714] had a % of control of 93%.
Take `N#Cc1cccc(-c2c[nH]c3ncnc(N4CCOCC4)c23)c1`: the % of control in test [12] came to 43%. Further, the % of inhibition in test [13] turned out to be 58%.
